# Results from patent US7425557B2, “Inhibitors of glycogen synthase kinase 3” (Novartis Vaccines and Diagnostics, Inc., priority 1998, dated 2008).
# Target: human GSK3β (Homo sapiens, UniProt P49841)
# Assay: Screening for GSK3 inhibitory activity using a cell-free assay
# Type: biochemical
# Details: read-out: IC50 with respect to GSK3
# Description: This amount represents the amount of radiolabeled phosphate incorporated into the peptide substrate.
# The captured radiolabeled peptide substrate can be quantitated in a scintillation counter using known methods. […] If an inhibitor is present during the reaction, GSK3 activity will be reduced, and a smaller quantity of radiolabeled phosphate will thus be incorporated into the peptide substrate.
# Pyrimidine and pyridine compounds of the present invention were dissolved in DMSO, then tested for inhibition of human GSK3β (the nucleotide sequence for human GSK3β appears in GenBank under Accession No. L33801).
# While the reaction was proceeding, streptavidin-coated Labsystems “Combiplate 8” capture plates (Labsystems, Helsinki, Finland) were blocked by incubating them with 300 μl/well of PBS containing 1% bovine serum albumin for at least one hour at room temperature. The blocking solution was then removed by aspiration, and the capture plates were filled with 100 ul/well of stopping reagent (50 μM ATP/20 mM EDTA).
# When the three hour enzyme reaction was finished, triplicate 100 μl aliquots of each reaction mix were transferred to three wells containing stopping solution, one well on each of the three capture plates, and the well contents were mixed well. […] Finally, 200 μl of Microscint-20 scintillation fluid was added to each well of the plate. The plates were coated with plate sealers, then left on a shaker for 30 minutes. Each capture plate was counted in a Packard TopCount scintillation counter (Meridian, Conn.) and the results were plotted as a function of compound concentration.
# Sequence of human GSK3β (P49841 whole entry): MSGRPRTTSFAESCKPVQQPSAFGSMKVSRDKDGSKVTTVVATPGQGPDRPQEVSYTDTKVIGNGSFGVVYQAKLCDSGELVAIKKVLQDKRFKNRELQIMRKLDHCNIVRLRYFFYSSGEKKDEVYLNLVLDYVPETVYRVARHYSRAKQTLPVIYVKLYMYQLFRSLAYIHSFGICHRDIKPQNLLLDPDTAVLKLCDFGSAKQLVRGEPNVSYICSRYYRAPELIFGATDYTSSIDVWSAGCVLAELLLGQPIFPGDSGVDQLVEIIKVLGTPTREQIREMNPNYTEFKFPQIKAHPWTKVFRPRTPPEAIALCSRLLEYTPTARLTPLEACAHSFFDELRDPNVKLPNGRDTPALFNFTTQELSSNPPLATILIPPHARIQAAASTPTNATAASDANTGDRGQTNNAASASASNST
row,SMILES,IC50
1,O=C(O)c1c(-c2ccc([N+](=O)[O-])cc2)nc(NCCNc2ccc([N+](=O)[O-])cn2)nc1-c1ccc(C(F)(F)F)cc1 [2-({2-[(5-nitro(2-pyridyl))amino]ethyl}amino)-6-(4-nitrophenyl)-4-[4-(trifluoromethyl)phenyl]pyrimidine-5-carboxylic acid],≤ 10 µM
2,NC(=O)c1ccc(-c2ccnc(NCc3ccncc3)n2)cc1 [4-{2-[(4-pyridylmethyl)amino]pyrimidin-4-yl}benzamide],≤ 10 µM
3,NC(=O)c1ccc(-c2ccnc(NCc3ccc(-c4cccc(N)c4)cc3)n2)cc1 [4-[2-({[4-(3-aminophenyl)phenyl]methyl}amino)pyrimidin-4-yl]benzamide],≤ 10 µM
4,c1ccc(-c2ccnc(NCCc3ccccn3)n2)cc1 [(4-phenylpyrimidin-2-yl)(2-(2-pyridyl)ethyl)amine],≤ 10 µM
5,N#Cc1ccc(NCCNc2ncc(-n3cc(Cl)ccc3=O)c(-c3ccc(Cl)cc3Cl)n2)nc1,≤ 1 µM
6,"NC(=O)c1ccc(-c2ccnc(NCc3ccc(Cl)cc3Cl)n2)cc1 [4-(2-{[(2,4-dichlorophenyl)methyl]-amino}pyrimidin-4-yl)benzamide]",≤ 10 µM
7,Cc1c[nH]c(-c2cnc(NCCNc3ccc(C#N)cn3)nc2-c2ccc(Br)cc2Cl)n1 [6-[(2-{[4-(4-bromo-2-chlorophenyl)-5-(4-methylimidazol-2-yl)pyrimidin-2-yl]amino}ethyl)amino]pyridine-3-carbonitrile],≤ 1 µM
8,N#Cc1ccc(-c2ccnc(NCCc3ccccn3)n2)cc1 [4-{2-[(2-(2-pyridyl)ethyl)-amino]pyrimidin-4-yl}benzenecarbonitrile],≤ 10 µM
9,NC(=O)c1ccc(-c2ccnc(NCc3cccc([N+](=O)[O-])c3)n2)cc1 [4-(2-{[(3-nitro-phenyl)methyl]amino}pyrimidin-4-yl)benzamide],≤ 10 µM
10,"Nc1nc(NCCNc2ncc(N3C(=O)CC(N4CCOCC4)C3=O)c(-c3ccc(Cl)cc3Cl)n2)ccc1[N+](=O)[O-] (centres unmarked) [1-[2-({2-[(6-amino-5-nitro(2-pyridyl))amino]ethyl}amino)-4-(2,4-dichlorophenyl)pyrimidin-5-yl]-3-morpholin-4-ylpyrrolidine-2,5-dione]",≤ 1 µM

# Other lines, results leading:
row,IC50,SMILES
1,≤ 10 µM,O=C(NCc1ccc(F)cc1)c1ccc(-c2ccnc(NCCNc3ccc([N+](=O)[O-])cn3)n2)cc1 [N-[(4-fluorophenyl)methyl]{4-[2-({2-[(5-nitro(2-pyridyl))amino]ethyl}amino)pyrimidin-4-yl]phenyl}carboxamide]
2,≤ 1 µM,O=[N+]([O-])c1ccc(NCCNc2ncc(-c3ncc[nH]3)c(-c3ccc(Br)cc3Cl)n2)nc1 [[4-(4-bromo-2-chlorophenyl)-5-imidazol-2-ylpyrimidin-2-yl]{2-[(5-nitro(2-pyridyl))amino]ethyl}amine]
3,≤ 10 µM,"O=C(NCCc1ccc(Cl)cc1Cl)c1ccc(-c2ccnc(NCCNc3ccc([N+](=O)[O-])cn3)n2)cc1 [N-[2-(2,4-dichlorophenyl)ethyl]{4-[2-({2-[(5-nitro(2-pyridyl))amino]ethyl}-amino)pyrimidin-4-yl]phenyl}carboxamide]"
4,≤ 1 µM,"Nc1nc(NCCNc2ncc(CN3CCOCC3)c(-c3ccc(Cl)cc3Cl)n2)ccc1[N+](=O)[O-] [{2-[(6-amino-5-nitro(2-pyridyl))amino]ethyl}[4-(2,4-dichlorophenyl)-5-(morpholin-4-ylmethyl)pyrimidin-2-yl]amine]"
5,≤ 10 µM,Cc1cn(-c2ccccc2)nc1-c1ccnc(NCCNc2ccccn2)n1 [[4-(4-methyl-1-phenylpyrazol-3-yl)pyrimidin-2-yl][2-(2-pyridyl-amino)ethyl]amine]
6,≤ 1 µM,CN(C)CCOC(=O)Nc1cnc(NCCNc2ccc([N+](=O)[O-])cn2)nc1-c1ccc(C#N)cc1 [[2-(dimethyl-amino)ethoxy]-N-[4-(4-cyanophenyl)-2-({2-[(5-nitro(2-pyridyl))amino]ethyl}amino)-pyrimidin-5-yl]carboxamide]
7,≤ 10 µM,"CCOC(=O)c1cnc(NCCNc2ccc([N+](=O)[O-])cn2)nc1-c1ccc(F)cc1F [ethyl 4-(2,4-difluorophenyl)-2-({2-[(5-nitro(2-pyridyl))amino]ethyl}amino)pyrimidine-5-carboxylate]"
